Results from patent publication US9994594B2, “Inhibitors of arginase and their therapeutic applications” (MARS, INCORPORATED, priority 2010, dated 2018).
Structures can show the parent of a compound that is named as a salt. Where two headings read alike, the source gives them in different places.

How the values were obtained:
[1] = biological target: T1, human arginase I (ARG I) (Homo sapiens, UniProt P05089); test: Inhibition of arginase I, spectrophotometric urea assay at 530 nm; type: biochemical; conditions: read-out: Potency (ARG I)
T1 sequence (P05089 1-322): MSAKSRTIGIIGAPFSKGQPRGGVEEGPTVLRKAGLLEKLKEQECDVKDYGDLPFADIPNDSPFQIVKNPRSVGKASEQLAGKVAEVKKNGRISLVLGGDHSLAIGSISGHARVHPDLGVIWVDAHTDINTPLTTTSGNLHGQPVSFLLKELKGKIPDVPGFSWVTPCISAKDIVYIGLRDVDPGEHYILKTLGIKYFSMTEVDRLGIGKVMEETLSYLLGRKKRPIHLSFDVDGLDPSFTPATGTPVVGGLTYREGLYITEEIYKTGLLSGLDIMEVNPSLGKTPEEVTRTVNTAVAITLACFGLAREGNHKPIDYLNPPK
Description: (§1) The assay established the concentration of inhibitor that is required to reduce arginase activity by 50% (IC50).
(§2) Inhibition of arginase I (ARG I) and arginase II (ARG II) by Formula I and Formula II compounds is followed spectrophotometrically at 530 nm. The compound to be tested is dissolved in DMSO at an initial concentration 50-fold greater than its final concentration in the cuvette. 10 μl of the stock solution is diluted in 90 μl of the assay buffer that comprises 0.1M sodium phosphate buffer containing 130 mM NaCl, pH 7.4, to which is added ovalbumin (OVA) at a concentration of 1 mg/ml. Solutions of arginase I and II are prepared in 100 mM sodium phosphate buffer, pH 7.4 containing 1 mg/ml of OVA to give an arginase stock solution at a final concentration of 100 ng/ml.
(§3) To each well of a 96-well microtiter plate is add 40 μl of enzyme, 10 μl of an inventive compound and 10 μl of enzyme substrate (L-arginine+manganese sulfate). For wells that are used as positive controls, only the enzyme and its substrate are added, while wells used as negative controls contain only manganese sulfate.
(§4) After incubating the microtiter plate at 37° C. for 60 minutes, 150 μl of a urea reagent obtained by combining equal proportions (1:1) of reagents A and B is added to each well of the microtiter plate to stop the reaction. The urea reagent is made just before use by combining Reagent A (10 mM o-phthaldialdehyde, and 0.4% polyoxyethylene (23) lauryl ether (w/v) in 1.8 M sulfuric acid) with Reagent B (1.3 mM primaquine diphosphate, 0.4% polyoxyethylene (23) lauryl ether (w/v), 130 mM boric acid in 3.6 M sulfuric acid). After quenching the reaction mixture, the microtiter plate is allowed to stand for an additional 10 minutes at room temperature to allow color development. The inhibition of arginase is computed by measuring the optical density (OD) of the reaction mixture at 530 nm and normalizing the OD value to percent inhibition observed in the control. The normalized OD is then used to generate a dose-response curve by plotting the normalized OD values against log [concentration] and using regression analysis to compute the IC50 values.

[2] = biological target: T2, arginase II (ARG II) (Homo sapiens, UniProt P78540); test: Inhibition of arginase II, spectrophotometric urea assay at 530 nm; type: biochemical
T2 sequence (P78540 23-354): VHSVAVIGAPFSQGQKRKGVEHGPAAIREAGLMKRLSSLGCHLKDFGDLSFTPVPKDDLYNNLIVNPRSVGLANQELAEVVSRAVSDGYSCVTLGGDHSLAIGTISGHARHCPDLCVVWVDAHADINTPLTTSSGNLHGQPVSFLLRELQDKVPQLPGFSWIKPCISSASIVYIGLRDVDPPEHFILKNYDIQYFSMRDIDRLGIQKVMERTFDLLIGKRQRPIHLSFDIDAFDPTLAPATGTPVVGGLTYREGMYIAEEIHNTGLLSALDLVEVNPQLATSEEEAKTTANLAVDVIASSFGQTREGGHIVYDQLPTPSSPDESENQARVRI
Description: as §1, §2, §3, §4

[3] = Formula II compounds, Table 2-A
[4] = Formula II compounds, Table 2-A, read-out: Potency (ARG)
[5] = Formula I compounds, Table 2, read-out: Potency (ARG II)

SMILES | IC50 [1, 3] [nM] | IC50 [2, 4] [nM] | IC50 ([1]; Formula I compounds, Table 2) [nM] | IC50 [2, 5] [nM]
NC(CCCCB(O)O)(C(=O)O)[C@@H]1CCN(Cc2ccc(F)cc2)C1 (mixture of isomers) [37-A, 2-amino-6-borono-2-((R)-1-(4-fluorobenzyl)pyrrolidin-3-yl)hexanoic acid] | 251 to 1000 | 1000 to 2000 |  | 
NC(CCCCB(O)O)(C(=O)O)[C@@H]1CCN(Cc2ccc(C(F)(F)F)cc2)C1 (mixture of isomers) [38-A, 2-amino-6-borono-2-((R)-1-(4-(trifluoromethyl)benzyl)pyrrolidin-3-yl)hexanoic acid dihydrochloride] | 251 to 1000 | 251 to 1000 |  | 
CCN(CCC(N)(CCCCB(O)O)C(=O)O)Cc1ccccc1 (racemic) [compound 19, (R/S)-2-Amino-2-[2-(benzyl-ethyl-amino)-ethyl]-6-borono-hexanoic acid dihydrochloride] |  |  | 2000 to 5000 | 1000 to 2000
NC(CCCCB(O)O)(C(=O)O)C1CCN(c2ccc(C(F)(F)F)cn2)CC1 (stereo not shown) [1-A, 2-amino-6-borono-2-(5′Trifluoromethyl-3,4,5,6-tetrahydro-2H-[1,2′]bipyridinyl-4-yl)-hexanoic acid hydrochloride] | 251 to 1000 | 1000 to 2000 |  | 
NC(CCCCB(O)O)(C(=O)O)C1CCN(c2nccc(C(F)(F)F)n2)CC1 (stereo not shown) [2-A, 2-amino-6-borono-2-[(4-Trifluoromethyl-pyrimidin-2-yl)-piperidin-4-yl)-hexanoic acid hydrochloride] | 1000 to 2000 | 2000 to 5000 |  | 
NC(CCCCB(O)O)(C(=O)O)C1CCN(c2cc(C(F)(F)F)nc3ccccc23)CC1 (stereo not shown) [3-A, 2-amino-6-borono-2-[(2-Trifluoromethyl-quinolin-4-yl)-piperidin-4-yl)-hexanoic acid hydrochloride] | 1000 to 2000 | 1000 to 2000 |  | 
NC(CCCCB(O)O)(C(=O)O)C1CCN(c2nc3ccc(Cl)cc3o2)CC1 (stereo not shown) [4-A, 2-amino-6-borono-2-[(6-chlorobenzoxazol-2-yl)-piperidin-4-yl)-hexanoic acid hydrochloride] | 251 to 1000 | 1000 to 2000 |  | 
Cc1cc2c(F)ccc(C)c2nc1N1CCC(C(N)(CCCCB(O)O)C(=O)O)CC1 (stereo not shown) [5-A, 2-amino-6-borono-2-(1-(5-fluoro-3,8-dimethylquinolin-2-yl)piperidin-4-yl)hexanoic acid dihydrochloride] | 1000 to 2000 | 251 to 1000 |  | 
NC(CCCCB(O)O)(C(=O)O)C1CCN(c2cc(C(F)(F)F)c3ccccc3n2)CC1 (stereo not shown) [6-A, 2-amino-6-borono-2-(1-(4-(trifluoromethyl)quinolin-2-yl)piperidin-4-yl)hexanoic acid] | 251 to 1000 | 1000 to 2000 |  | 
Cc1cc(C(F)(F)F)cc(N2CCC(C(N)(CCCCB(O)O)C(=O)O)CC2)n1 (stereo not shown) [7-A, 2-amino-6-borono-2-(1-(6-methyl-4-(trifluoromethyl)pyridin-2-yl)piperidin-4-yl)hexanoic acid] | 1000 to 2000 | 2000 to 5000 |  | 
NC(CCCCB(O)O)(C(=O)O)C1CCN(c2ncc(Cl)cc2Cl)CC1 (stereo not shown) [8-A, 2-amino-6-borono-2-(1-(3,5-dichloropyridin-2-yl)piperidin-4-yl)hexanoic acid] | 2000 to 5000 | 2000 to 5000 |  | 
NC(CCCCB(O)O)(C(=O)O)C1CCN(c2cc(C(F)(F)F)ccn2)CC1 (stereo not shown) [9-A] | 1000 to 2000 | 2000 to 5000 |  | 
NC(CCCCB(O)O)(C(=O)O)C1CCN(c2ncc(C(F)(F)F)cc2Cl)CC1 (stereo not shown) [10-A, 2-amino-6-borono-2-(1-(3-chloro-5-(trifluoromethyl)pyridin-2-yl)piperidin-4-yl)hexanoic acid dihydrochloride] | 2000 to 5000 | 2000 to 5000 |  | 
NC(CCCCB(O)O)(C(=O)O)C1CCN(c2nc3ccc(Cl)cc3s2)CC1 (stereo not shown) [11-A, 2-amino-6-borono-2-[(6-chlorobenzothiazol-2-yl)-piperidin-4-yl)-hexanoic acid dihydrochloride] | 251 to 1000 | 251 to 1000 |  | 
N[C@@](CCCCB(O)O)(C(=O)O)[C@H]1CCN(c2ccc(Cl)cc2)C1 [12-A, (R)-2-amino-6-borono-2-((S)-1-(4-chlorophenyl)pyrrolidin-3-yl)hexanoic acid hydrochloride] | 2000 to 5000 | 2000 to 5000 |  | 
NC(CCCCB(O)O)(C(=O)O)[C@@H]1CC(=O)N(c2ccc(Cl)cc2)C1 (stereo partly shown) [14-A, 2-amino-6-borono-2-[1-(4-chlorophenyl)-5-oxo-pyrrolidin-3-yl]-hexanoic acid hydrochloride] | 2000 to 5000 | 2000 to 5000 |  | 
NC(CCCCB(O)O)(CCN1CCOCC1)C(=O)O (stereo not shown) [compound 24, 2-amino-6-borono-2-(2-morpholinoethyl)hexanoic acid] |  |  |  | 2000 to 5000
NC(CCCCB(O)O)(CCN1CCNCC1)C(=O)O (stereo not shown) [compound 32, 2-amino-6-borono-2-(2-(piperazin-1-yl)ethyl)hexanoic acid trihydrochloride] |  |  |  | 2000 to 5000
CN1CCN(CCC(N)(CCCCB(O)O)C(=O)O)CC1 (stereo not shown) [compound 35, 2-amino-6-borono-2-(2-(4-methylpiperazin-1-yl)ethyl)hexanoic acid trihydrochloride] |  |  |  | 2000 to 5000

Second part, the molecule after the results:

IC50 [1, 3] [nM] | IC50 [2, 4] [nM] | IC50 ([1]; Formula I compounds, Table 2) [nM] | IC50 [2, 5] [nM] | SMILES
 |  | > 5000 | > 5000 | NC(CCCCB(O)O)(CNC(c1ccccc1)C(O)c1ccccc1)C(=O)O (stereo in doubt) [compound 89, 2-amino-6-borono-2-(((1R,2S)-2-hydroxy-1,2-diphenylethylamino)methyl)hexanoic acid dihydrochloride]
 |  | 0.1 to 250 | 0.1 to 250 | N[C@](CCCCB(O)O)(C[C@H]1CCCN1)C(=O)O (stereo in doubt) [compound 115, (R)-2-amino-6-borono-2-((R)-pyrrolidin-2-ylmethyl)hexanoic acid]
 |  |  | > 5000 | NC(CCCCB(O)O)(CN1CCOCC1)C(=O)O (stereo not shown) [compound 81, 2-amino-6-borono-2-(morpholinomethyl)hexanoic acid dihydrochloride]
 |  |  | 2000 to 5000 | NC(CO)(CCCCB(O)O)C(=O)O (stereo not shown) [compound 82, 2-amino-6-borono-2-(hydroxymethyl)hexanoic acid hydrochloride]
 |  |  | > 5000 | NC(CCCCB(O)O)(Cc1cccc(F)c1)C(=O)O (stereo not shown) [compound 98, 2-amino-6-borono-2-(3-fluorobenzyl)hexanoic acid hydrochloride]
 |  |  | > 5000 | NC(CCCCB(O)O)(Cc1ccccc1)C(=O)O (stereo not shown) [compound 99, 2-amino-2-benzyl-6-boronohexanoic acid hydrochloride]
 |  |  | > 5000 | COCCCC(N)(CCCCB(O)O)C(=O)O (stereo not shown) [compound 100, 2-amino-6-borono-2-(3-methoxypropyl)hexanoic acid hydrochloride]
 |  | 2000 to 5000 |  | NC(CCCO)(CCCCB(O)O)C(=O)O (stereo not shown) [compound 101, 2-amino-6-borono-2-(3-hydroxypropyl)hexanoic acid hydrochloride]
 |  |  | > 5000 | O=C(O)C1(CCCCB(O)O)CCCN1 (stereo not shown) [compound 103, 2-(4-boronobutyl)pyrrolidine-2-carboxylic acid hydrochloride]
 |  |  | > 5000 | CC(C)CC(N)(CCCCB(O)O)C(=O)O (stereo not shown) [compound 104, 2-amino-6-borono-2-isobutylhexanoic acid hydrochloride]
 |  |  | > 5000 | CC(C)C(N)(CCCCB(O)O)C(=O)O (stereo not shown) [compound 105, 2-amino-6-borono-2-isopropylhexanoic acid hydrochloride]
 |  | 251 to 1000 |  | NC(CCCCB(O)O)(CCC1Cc2ccccc2CN1)C(=O)O (stereo not shown) [compound 131, 2-amino-6-borono-2-(2-(1,2,3,4-tetrahydroisoquinolin-3-yl)ethyl)hexanoic acid dihydrochloride]
